Test system: PBMC
Experiment: 193 ssRNA 4mer-motif library screen: IL-12 (IL-12p40) production in PBMC of six donors, poly-L-Arg complexation, ELISA at 44 hours, IL-12 index and adjusted IL-12 index
Format: cell-based, human
Design: key to Adjusted IL-12 index Mean: IL-12 index (ratio to 9.2sense) minus donor mean, averaged over 6 donors
Conditions: 193 ssRNA oligonucleotide library; data from six individual donors summarized; ascending order
Protocol: FIG. 9: PBMC of six different healthy donors were isolated and stimulated with poly-L-arginine complexed ssRNA oligonucleotides in duplicates. 44 hours after stimulation IL-12p40 production was assessed in supernatant via ELISA. For all tested ssRNA oligonucleotides (table 3), the mean values of the measured duplicates were normalized to the positive control ssRNA oligonucleotide 9.2sense (5′-AGCUUAACCUGUCCUUCAA (SEQ ID NO: 194)) by dividing the mean value of tested oligonucleotide by the mean value of 9.2sense (=IL-12 index of a given oligonucleotide). Next, all individual IL-12 indices were adjusted to the mean value of all IL-12 indices by subtracting the mean value of all IL-12 indices from the individual IL-12 index of a given oligonucleotide (=adjusted IL-12 index). Data from six individual donors were summarized and were assorted in ascending order displaying the corresponding SEM (for a complete listing including numerical data see table 4). FIG. 9A discloses SEQ ID NOS 460-509, respectively, in order of appearance. FIG. 9B discloses SEQ ID NOS 510-559, respectively, in order of appearance. FIG. 9C discloses SEQ ID NOS 560-609, respectively, in order of appearance. FIG. 9D discloses SEQ ID NOS 610-652, respectively, in order of appearance.
All 193 ssRNA oligonucleotides were tested on PBMC of six individual healthy donors using poly-L-Arg for complexation. At 44 hours after stimulation with RNA oligonucleotides, supernatants were collected and IL-12 production was measured by ELISA. Prior to statistical analysis the raw data were processed as follows: for each cell culture plate the mean IL-12 value of the experimental duplicates for each tested ssRNA oligonucleotide were normalized to the ssRNA oligonucleotide RNA9.2sense (5′-AGCUUAACCUGUCCUUCAA-3′ (SEQ ID NO: 194)). This standard RNA oligonucleotide was included as a positive control on all cell culture plates. Normalization was performed by calculating the ratio of IL-12 induced by the tested oligonucleotide and IL-12 induced by the standard oligonucleotide RNA9.2sense. Thus, for each tested oligonucleotide in an individual donor a mean ratio of IL-12 induction was obtained. In the following, this mean of the ratios is referred to as IL-12 index (one value of IL-12 index per donor). […] The corresponding IL-12 index of oligonucleotide ANP175 for donor 3 was calculated to be 1.90 (=1725 pg/ml divided by 908 pg/ml).
Next, the means of all IL-12 indices for every individual donor were calculated. Then the adjusted IL-12 indices were calculated as IL-12 index minus the mean of all IL-12 indices of one individual donor. […] The adjusted IL-12 index of ANP175 was calculated: 1.90 minus 0.44=1.46. The adjusted IL-12 indices from all six donors were summarized by calculating the means and the corresponding standard error of mean. The data are depicted in ascending order (FIG. 9A, B, C, D). The adjusted IL-12 indices of the top thirty ssRNA oligonucleotides of all six donors were compared using a two-tailed Student's t-test (FIG. 10). For most combinations tested, a significant difference was observed when the interval between the analyzed pairs was at least eight or nine places in the assortment.

Row | Sequence | Adjusted IL-12 index Mean
1 | AAAAAAAAAAAAAAAAAAA (RNA, backbone not given here) [ANP-Oligo 001] | −0.48
2 | AAAAAAAACAAAAAAAAAA (RNA, backbone not given here) [ANP-Oligo 002] | −0.57
3 | AAAAAAAACACAAAAAAAA (RNA, backbone not given here) [ANP-Oligo 014] | −0.64
4 | AAAAAAAACAGAAAAAAAA (RNA, backbone not given here) [ANP-Oligo 015] | −0.65
5 | AAAAAAAACAUAAAAAAAA (RNA, backbone not given here) [ANP-Oligo 016] | −0.37
6 | AAAAAAAACCAAAAAAAAA (RNA, backbone not given here) [ANP-Oligo 005] | −0.62
7 | AAAAAAAACCCAAAAAAAA (RNA, backbone not given here) [ANP-Oligo 017] | −0.66
8 | AAAAAAAACCGAAAAAAAA (RNA, backbone not given here) [ANP-Oligo 018] | −0.68
9 | AAAAAAAACCUAAAAAAAA (RNA, backbone not given here) [ANP-Oligo 019] | −0.51
10 | AAAAAAAACGAAAAAAAAA (RNA, backbone not given here) [ANP-Oligo 006] | −0.63
11 | AAAAAAAACGCAAAAAAAA (RNA, backbone not given here) [ANP-Oligo 020] | −0.66
12 | AAAAAAAACGGAAAAAAAA (RNA, backbone not given here) [ANP-Oligo 021] | −0.63
13 | AAAAAAAACGUAAAAAAAA (RNA, backbone not given here) [ANP-Oligo 022] | 0.02
14 | AAAAAAAACUAAAAAAAAA (RNA, backbone not given here) [ANP-Oligo 007] | −0.56
15 | AAAAAAAACUCAAAAAAAA (RNA, backbone not given here) [ANP-Oligo 023] | −0.41
16 | AAAAAAAACUGAAAAAAAA (RNA, backbone not given here) [ANP-Oligo 024] | −0.48
17 | AAAAAAAACUUAAAAAAAA (RNA, backbone not given here) [ANP-Oligo 025] | −0.31
18 | AAAAAAAAGAAAAAAAAAA (RNA, backbone not given here) [ANP-Oligo 003] | −0.63
19 | AAAAAAAAGACAAAAAAAA (RNA, backbone not given here) [ANP-Oligo 026] | −0.6
20 | AAAAAAAAGAGAAAAAAAA (RNA, backbone not given here) [ANP-Oligo 027] | −0.62
21 | AAAAAAAAGAUAAAAAAAA (RNA, backbone not given here) [ANP-Oligo 028] | −0.32
22 | AAAAAAAAGCAAAAAAAAA (RNA, backbone not given here) [ANP-Oligo 008] | −0.61
23 | AAAAAAAAGCCAAAAAAAA (RNA, backbone not given here) [ANP-Oligo 029] | −0.66
24 | AAAAAAAAGCGAAAAAAAA (RNA, backbone not given here) [ANP-Oligo 030] | −0.6
25 | AAAAAAAAGCUAAAAAAAA (RNA, backbone not given here) [ANP-Oligo 031] | −0.32
26 | AAAAAAAAGGAAAAAAAAA (RNA, backbone not given here) [ANP-Oligo 009] | −0.66
27 | AAAAAAAAGGCAAAAAAAA (RNA, backbone not given here) [ANP-Oligo 032] | −0.62

Row | Sequence | Adjusted IL-12 index Mean
28 | AAAAAAAAGGGAAAAAAAA (RNA, backbone not given here) [ANP-Oligo 033] | −0.59
29 | AAAAAAAAGGUAAAAAAAA (RNA, backbone not given here) [ANP-Oligo 034] | 2.21
30 | AAAAAAAAGUAAAAAAAAA (RNA, backbone not given here) [ANP-Oligo 010] | −0.16
31 | AAAAAAAAGUCAAAAAAAA (RNA, backbone not given here) [ANP-Oligo 035] | −0.22
32 | AAAAAAAAGUGAAAAAAAA (RNA, backbone not given here) [ANP-Oligo 036] | −0.12
33 | AAAAAAAAGUUAAAAAAAA (RNA, backbone not given here) [ANP-Oligo 037] | 0.21
34 | AAAAAAAAUAAAAAAAAAA (RNA, backbone not given here) [ANP-Oligo 004] | −0.4
35 | AAAAAAAAUACAAAAAAAA (RNA, backbone not given here) [ANP-Oligo 038] | −0.32
36 | AAAAAAAAUAGAAAAAAAA (RNA, backbone not given here) [ANP-Oligo 039] | −0.05
37 | AAAAAAAAUAUAAAAAAAA (RNA, backbone not given here) [ANP-Oligo 040] | −0.04
38 | AAAAAAAAUCAAAAAAAAA (RNA, backbone not given here) [ANP-Oligo 011] | −0.43
39 | AAAAAAAAUCCAAAAAAAA (RNA, backbone not given here) [ANP-Oligo 041] | −0.48
40 | AAAAAAAAUCGAAAAAAAA (RNA, backbone not given here) [ANP-Oligo 042] | −0.64
41 | AAAAAAAAUCUAAAAAAAA (RNA, backbone not given here) [ANP-Oligo 043] | −0.22
42 | AAAAAAAAUGAAAAAAAAA (RNA, backbone not given here) [ANP-Oligo 012] | −0.23
43 | AAAAAAAAUGCAAAAAAAA (RNA, backbone not given here) [ANP-Oligo 044] | 0.2
44 | AAAAAAAAUGGAAAAAAAA (RNA, backbone not given here) [ANP-Oligo 045] | −0.29
45 | AAAAAAAAUGUAAAAAAAA (RNA, backbone not given here) [ANP-Oligo 046] | 0.97
46 | AAAAAAAAUUAAAAAAAAA (RNA, backbone not given here) [ANP-Oligo 013] | −0.09
47 | AAAAAAAAUUCAAAAAAAA (RNA, backbone not given here) [ANP-Oligo 047] | −0.45
48 | AAAAAAAAUUGAAAAAAAA (RNA, backbone not given here) [ANP-Oligo 048] | −0.35
49 | AAAAAAAAUUUAAAAAAAA (RNA, backbone not given here) [ANP-Oligo 049] | −0.07
50 | AAAAAAACAACAAAAAAAA (RNA, backbone not given here) [ANP-Oligo 050] | −0.64
51 | AAAAAAACAAGAAAAAAAA (RNA, backbone not given here) [ANP-Oligo 051] | −0.66
52 | AAAAAAACAAUAAAAAAAA (RNA, backbone not given here) [ANP-Oligo 052] | −0.37
53 | AAAAAAACACCAAAAAAAA (RNA, backbone not given here) [ANP-Oligo 053] | −0.67

Reference: US8815503B2, “Compositions and methods for immunostimulatory RNA oligonucleotides” (Rheinische Friedrich-Wilhelms-Universitat Bonn, priority 2005, dated 2014)
